Assay results: PubChem BioAssay (NCI)
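Where inhibition never reached the appropriate level, the endpoint shown equals the highest concentration tested. Otherwise, values were interpolated linearly from a five-concentration, 48-hour dose response in 96-well plates. The concentration for full growth arrest is given as TGI.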

Key:
Assay in all cases: inhibition of tumour cell growth, NCI panel, 48 h
SW-620 colon = tested on: SW-620 colon
SNB-19 CNS = tested on: SNB-19 CNS
T-47D breast = tested on: T-47D breast
CCRF-CEM leukemia = tested on: CCRF-CEM leukemia
SF-295 CNS = tested on: SF-295 CNS
SN12C renal = tested on: SN12C renal
786-0 renal = tested on: 786-0 renal
KM12 colon = tested on: KM12 colon
LOX IMVI melanoma = tested on: LOX IMVI melanoma
ACHN renal = tested on: ACHN renal
UACC-257 melanoma = tested on: UACC-257 melanoma
OVCAR-3 ovarian = tested on: OVCAR-3 ovarian
HCT-116 colon = tested on: HCT-116 colon
NCI-H522 lung = tested on: NCI-H522 lung
RXF 393 renal = tested on: RXF 393 renal
SK-OV-3 ovarian = tested on: SK-OV-3 ovarian
SK-MEL-28 melanoma = tested on: SK-MEL-28 melanoma
TK-10 renal = tested on: TK-10 renal
HT29 colon = tested on: HT29 colon
NCI/ADR-RES ovarian = tested on: NCI/ADR-RES ovarian
U251 CNS = tested on: U251 CNS
SF-268 CNS = tested on: SF-268 CNS
HCC-2998 colon = tested on: HCC-2998 colon
SF-539 CNS = tested on: SF-539 CNS
UACC-62 melanoma = tested on: UACC-62 melanoma
SK-MEL-5 melanoma = tested on: SK-MEL-5 melanoma
A549 NSCLC = tested on: A549 NSCLC
MDA-N = tested on: MDA-N
HOP-62 NSCLC = tested on: HOP-62 NSCLC
SR leukemia = tested on: SR leukemia
OVCAR-8 ovarian = tested on: OVCAR-8 ovarian
OVCAR-5 ovarian = tested on: OVCAR-5 ovarian
MOLT-4 leukemia = tested on: MOLT-4 leukemia
MCF7 breast = tested on: MCF7 breast
SK-MEL-2 melanoma = tested on: SK-MEL-2 melanoma
A498 renal = tested on: A498 renal
MALME-3M melanoma = tested on: MALME-3M melanoma
BT-549 breast = tested on: BT-549 breast
NCI-H23 lung = tested on: NCI-H23 lung
K-562 leukemia = tested on: K-562 leukemia
EKVX NSCLC = tested on: EKVX NSCLC
IGROV1 ovarian = tested on: IGROV1 ovarian
DU-145 prostate = tested on: DU-145 prostate
UO-31 renal = tested on: UO-31 renal
PC-3 prostate = tested on: PC-3 prostate
NCI-H460 lung = tested on: NCI-H460 lung
M14 melanoma = tested on: M14 melanoma
HCT-15 colon = tested on: HCT-15 colon
RPMI-8226 leukemia = tested on: RPMI-8226 leukemia
HL-60(TB) leukemia = tested on: HL-60(TB) leukemia
COLO 205 colon = tested on: COLO 205 colon
HS 578T breast = tested on: HS 578T breast
MDA-MB-231 breast = tested on: MDA-MB-231 breast
NCI-H226 lung = tested on: NCI-H226 lung
OVCAR-4 ovarian = tested on: OVCAR-4 ovarian
SNB-75 CNS = tested on: SNB-75 CNS
HOP-92 NSCLC = tested on: HOP-92 NSCLC

CC(C)/C(Cl)=N\OC(=O)Nc1ccc(F)cc1
TGI (SW-620 colon): 3.23 µM | TGI (SNB-19 CNS): 39.3 µM | TGI (T-47D breast): 24.1 µM | TGI (CCRF-CEM leukemia): 3.62 µM | TGI (SF-295 CNS): 27.8 µM | TGI (SN12C renal): 16.7 µM | TGI (786-0 renal): 9.55 µM | TGI (KM12 colon): 35.7 µM | TGI (LOX IMVI melanoma): 5.73 µM | TGI (ACHN renal): 7.7 µM | TGI (UACC-257 melanoma): 28.3 µM | TGI (OVCAR-3 ovarian): 21.6 µM | TGI (HCT-116 colon): 22.6 µM | TGI (NCI-H522 lung): 3.02 µM | TGI (RXF 393 renal): 29.9 µM | TGI (SK-OV-3 ovarian): 31.7 µM | TGI (SK-MEL-28 melanoma): 11.5 µM | TGI (TK-10 renal): 9.06 µM | TGI (HT29 colon): 4.6 µM | TGI (NCI/ADR-RES ovarian): > 48.5 µM | TGI (U251 CNS): 29 µM | TGI (SF-268 CNS): 56.1 µM | TGI (HCC-2998 colon): 32 µM | TGI (SF-539 CNS): 32.8 µM | TGI (UACC-62 melanoma): 40 µM | TGI (SK-MEL-5 melanoma): 26.4 µM | TGI (A549 NSCLC): 35.9 µM | TGI (MDA-N): 23.2 µM | TGI (HOP-62 NSCLC): 33.4 µM | TGI (SR leukemia): 4.33 µM | TGI (OVCAR-8 ovarian): 25.6 µM | TGI (OVCAR-5 ovarian): 30.4 µM | TGI (MOLT-4 leukemia): 4.2 µM | TGI (MCF7 breast): 14.3 µM | TGI (SK-MEL-2 melanoma): 32.8 µM | TGI (A498 renal): 28.5 µM | TGI (MALME-3M melanoma): 3.91 µM | TGI (BT-549 breast): 24.2 µM | TGI (NCI-H23 lung): 38.4 µM | TGI (K-562 leukemia): 3.45 µM | TGI (EKVX NSCLC): 11.3 µM | TGI (IGROV1 ovarian): 31.7 µM | TGI (DU-145 prostate): 30.7 µM | TGI (UO-31 renal): 10.5 µM | TGI (PC-3 prostate): 31.4 µM | TGI (NCI-H460 lung): 36.1 µM | TGI (M14 melanoma): 16.1 µM | TGI (HCT-15 colon): 12.9 µM | TGI (RPMI-8226 leukemia): 4.19 µM | TGI (HL-60(TB) leukemia): 3.72 µM | TGI (COLO 205 colon): 4.42 µM | TGI (HS 578T breast): 71.9 µM | TGI (MDA-MB-231 breast): 5.17 µM | TGI (NCI-H226 lung): 36.9 µM

CC1=NCC[N+]1(CCc1ccccc1)Cc1ccccc1 (stereo not drawn)
TGI (SW-620 colon): > 100 µM | TGI (SNB-19 CNS): > 100 µM | TGI (T-47D breast): > 100 µM | TGI (CCRF-CEM leukemia): > 100 µM | TGI (SF-295 CNS): > 100 µM | TGI (SN12C renal): > 100 µM | TGI (786-0 renal): > 100 µM | TGI (KM12 colon): > 100 µM | TGI (LOX IMVI melanoma): > 100 µM | TGI (ACHN renal): > 100 µM | TGI (UACC-257 melanoma): 91.7 µM | TGI (OVCAR-3 ovarian): 91 µM | TGI (HCT-116 colon): > 100 µM | TGI (NCI-H522 lung): 72.3 µM | TGI (RXF 393 renal): > 100 µM | TGI (SK-OV-3 ovarian): > 100 µM | TGI (SK-MEL-28 melanoma): > 100 µM | TGI (TK-10 renal): > 100 µM | TGI (HT29 colon): > 100 µM | TGI (NCI/ADR-RES ovarian): > 100 µM | TGI (U251 CNS): > 100 µM | TGI (SF-268 CNS): > 100 µM | TGI (HCC-2998 colon): > 100 µM | TGI (UACC-62 melanoma): > 100 µM | TGI (SK-MEL-5 melanoma): > 100 µM | TGI (OVCAR-4 ovarian): > 100 µM | TGI (A549 NSCLC): > 100 µM | TGI (MDA-N): > 100 µM | TGI (HOP-62 NSCLC): > 100 µM | TGI (SR leukemia): > 100 µM | TGI (SNB-75 CNS): > 100 µM | TGI (OVCAR-8 ovarian): > 100 µM | TGI (OVCAR-5 ovarian): > 100 µM | TGI (MCF7 breast): > 100 µM | TGI (SK-MEL-2 melanoma): > 100 µM | TGI (A498 renal): > 100 µM | TGI (MALME-3M melanoma): > 100 µM | TGI (BT-549 breast): > 100 µM | TGI (NCI-H23 lung): > 100 µM | TGI (K-562 leukemia): 31 µM | TGI (EKVX NSCLC): > 100 µM | TGI (IGROV1 ovarian): > 100 µM | TGI (DU-145 prostate): > 100 µM | TGI (UO-31 renal): > 100 µM | TGI (NCI-H460 lung): > 100 µM | TGI (M14 melanoma): > 100 µM | TGI (HCT-15 colon): > 100 µM | TGI (RPMI-8226 leukemia): 69.8 µM | TGI (HL-60(TB) leukemia): 68.7 µM | TGI (COLO 205 colon): 21.5 µM | TGI (HS 578T breast): > 100 µM | TGI (MDA-MB-231 breast): > 100 µM | TGI (HOP-92 NSCLC): 49.8 µM | TGI (NCI-H226 lung): > 100 µM
